Source: US11993594B2, “IRAK inhibitors and method for making and using” (Rigel Pharmaceuticals, Inc., priority 2016, dated 2024)
Structures can show the parent of a compound that is named as a salt. Where two headings read alike, the source gives them in different places.

What was measured:
[1] = tested on: LPS induced IL-23 (p19/p40) in DC cells; experiment: IL23-p19 ELISA, dendritic (DC) cells differentiated from human PBMC, LPS stimulated; assay type: cell-based; settings: LPS 1 μg/ml, 18 hours, 10 pt
Procedure: Compound Screening Using DC Cells
Human PBMC cells (400 million) obtained from the vendor were transferred into a T-175 flask containing 15 ml RPMI media (10% FBS) and incubate for 2 hours at 37° C. After 2 hours, the media including floating cells was aspirated out carefully and 12 ml of fresh RPMI media (10% FBS) containing GMCSF (100 ng/ml) and IL4 (20 ng/ml) was added, and the flask was kept in a 37° C. incubator for 7 days.
After 3 days, fresh GMCSF (100 ng/ml) and IL4 (20 ng/ml) were added to the flask and the incubation continued. After 7 days, the fully differentiated cells were harvested by spinning down (1200 rpm/5 min) and aspirating the media. The cells were suspended in fresh RPMI media (10% FBS) containing 50 ng/ml IFNγ (1000 U/ml) and then plated (50K/well in 100 μl) onto a white clear bottom 96 well plate and left in a 37° C. incubator for 24 hours.
After 24 hours incubation, 100 μl of RPMI media was added containing 2× concentrated test compound per well to the above cell-culture media (final concentration becomes 1×) and the plates were pre-incubated for 1 hour at 37° C. before stimulating with LPS.
After 1 hour compound pre-incubation, 10 μl per well of 20× concentrated LPS solution in RPMI media was added to give a final concentration of 1 μg/ml. The mixture was shaken and incubated the plates at 37° C. for an additional 18 hours.
155 μl of the supernatant was harvested from each well carefully (without the tip touching the bottom of the well) and to the remaining 50 μl/well of the cell culture plate was added 50 μl of Cell Titer Glo reagent. The mixture was incubated for 1-2 minutes on a shaker and the plate was read for luminescence intensity to determine the compound cytotoxicity. The cell culture supernatant collected above was used to carry out IL23 ELISA (65 μl—Supernatant) and IL10 ELISA (90 μl—Supernatant) as described below.
Human IL-23 (p19/p40) ELISA Protocol (e-Biosciences)
To 10.5 ml PBS add 50 μl of anti-IL23 (p19) was added capture antibody (2.5 μg/ml). The mixture was mixed well and 100 μl of the coating solution was added to each well of the 96 well white plates from Pierce. The wells were covered and incubated overnight at 4° C.
The anti-IL23 (p19)-antibody-coated plates were washed 2× using TBST (use plate washer) and blocked using 200 μl of 0.5% Casein for 1.5 to 2 hours at room temperature with shaking.
The plates were washed 2× using TBST and the supernatant was transferred (65 μl/well) to the above pre-blocked/IL23(p19)-antibody-coated 96 well plate, and incubated at room temperature for 1.5 hours with shaking.
The plates were washed 4× using TBST (plate washer) and 100 μl/well detection antibody solution prepared from 2 μl of biotin labeled anti-IL-12 (p40/p70) antibody in 11 ml 1% BSA/PBS solution (1-5000 dilution) was added. The plates were incubated for 1 hour with shaking at Room temperature.
Again, the plates were washed 4× with TBST and 100 μl of HRP labeled Streptavidin (R&D Systems) solution (10 μl/10 ml 1% BSA solution) was added, and the plates were incubated at room temperature for another 45 minutes with shaking.
After 45 minutes, the plates were washed with TBST 4× and 100 μl/well Super Signal ELISA Pico Chemiluminescent Substrate from Pierce (3.5 ml A+3.5 ml B+3.5 ml MQ water) was added. The plates were shaken for 1-2 minutes then read on a plate reader. […]

[2] = tested on: LPS Induced IL23p19 in THP-1 Cells; experiment: LPS Induced IL23p19 in THP-1 Cells (with IFNγ Primed) Assay; assay type: cell-based, human; settings: THP-1 cells primed with IFNγ 50 ng/mL, LPS 1 ug/mL, 18 hours, 10 pt, read-out: IL23-p19 ELISA, THP1-IFNγ, LPS, 10 pt EC50
Text: LPS Induced IL23p19 in THP-1 Cells (with IFNγ Primed) Assay
THP-1 Cells (ATCC, Cat #TIB-202), Dimethyl Sulfoxide (DMSO) (Sigma-Aldrich, Cat #D2650), RPMI 1640 (Cellgro, Cat #10-040-CM), Fetal Bovine Serum (Sigma, Cat #F4135), Albumin From Bovine Serum (BSA) (Sigma-Aldrich, Cat #A7906), LPS (Serotype K-235, Sigma, Product Number L 2143), IFNγ (Peprotech, Cat #300-02) Capture antibody: Human IL-23p19 ELISA (e-Bioscience, Cat. #14-7238-85), Detection antibody: Primary Mouse Biotinylated anti-human IL-12(p40/p70) (e-Bioscience, Cat. #13-7129-85), Secondary HRP-conjugated Streptavidin (R&D Systems, Cat #DY998), 1×PBST Washing Buffer (PBS-Tween tablet) (VWR International, Cat #80058-558), ELISA Blocking Buffer (PBS with 1% BSA), ELISA Dilution Buffer (PBS with 1% BSA), 384 Well Flat-Bottom, MaxiSorp Black Immuno Plates (Thermo Scientific, Cat #12-565-346), 384 Well Flat-Bottom, White Tissue Culture Plates (Thermo Scientific, Cat #12-565-343), Super Signal ELISA Pico Chemiluminescent Substrate (Thermo Scientific, Cat #37070), Cell Titer Glo reagent (Promega, Cat #G7573), Positive control, IKK2VI inhibitor (Calbiochem, Cat #401483), AquaMax 4000 plate washer (Molecular Devices), Luminometer, Wallac Victor2 1420 Multilabel Counter.
On day 1, 50K/well THP-1 cells were seeded and primed with IFNγ (50 ng/mL) in 384-well plates for about 18 hours in RPMI media with 10% FBS. On day 2, the compound was serially diluted in DMSO from 5 mM in 3-fold dilutions, and then diluted 1:125 in RPMI media with 10% FBS. 50 μL/well 2× compound was added to 50 μL/well THP-1 cells (with IFNγ primed) in duplicate in 384 well tissue culture plates. The cells were pre-incubated with compound for 1 hour at 37° C., 5% CO2 before addition of 10 μL/well 11×LPS to give a final concentration of 1 ug/mL LPS. Day 3, after stimulation for 18 hours at 37° C., 5% CO2, the assay plate was centrifuged and 70 μL/well supernatant was harvested. IL-23p19 protein in 70 µL/well of supernatant was measured by sandwich ELISA, and 25 μl/well Cell Titer Glo reagent was added to the remaining cells to measure compound toxicity.
Human IL-23p19 Sandwich ELISA:
Maxisorp immuno ELISA plates were pre-coated with 25 μL/well of anti-IL-23p19 capture antibody (2.5 ug/mL) in PBS overnight at room temperature. After washing with 1×PBST, the plates were blocked using 100 μL/well of 1% BSA in PBS for 2 hours at room temperature. The plates were washed three times with 1×PBST and 70 μL/well supernatant were added. The plates were incubated at room temperature for 2 hours with shaking and washed three times with 1×PBST. 25 μL/well of biotin labeled anti-IL-12(p40/p70) detection antibody (100 ng/mL) in PBS with 1% BSA was added and the plates were incubated at room temperature for 2 hours with shaking. After washing three times with 1×PBST, 25 μL/well of streptavidin-HRP (1:200) in PBS with 1% BSA was added and the plates were incubated at room temperature for 20 minutes with shaking. The plates were washed three times with 1×PBST and 25 μL/well of Super Signal ELISA Pico Chemiluminescent Substrate were added. The plates were read with a luminometer, and the chemiluminescence values were entered into Athena (Rigel) for curve fitting, EC50 calculation, and database storage. […]

| SMILES | EC50 ([1]; Table 1, IFNγ 50 ng/ml) [nM] | EC50 ([2]; Homo sapiens, Table 1) [nM] | EC50 ([2]; Table 1) [nM] | EC50 ([2]; Table 2) [nM] | also measured |
| --- | --- | --- | --- | --- | --- |
| O=C(Nc1cn([C@H]2CC[C@H](O)CC2)nc1-c1cnccn1)c1coc(-c2cn[nH]c2)n1 [Compound I-27, N-(1-((1r,4r)-4-hydroxycyclohexyl)-3-(pyrazin-2-yl)-1H-pyrazol-4-yl)-2-(1H-pyrazol-4-yl)oxazole-4-carboxamide] | 64.1 | 15.8 | – | – | – |
| O=C(Nc1cn([C@H]2CC[C@H](N3CCOCC3)CC2)nc1-c1ncccn1)c1coc(-c2cn[nH]c2)n1 [Compound I-2, N-(1-((1r,4r)-4-morpholinocyclohexyl)-3-(pyrimidin-2-yl)-1H-pyrazol-4-yl)-2-(1H-pyrazol-4-yl)oxazole-4-carboxamide] | 84.2 | – | 34.3 | 34.3 | EC50 ([1]; Table 2, IFNγ 50 ng/ml): 84.2 nM |
| O=C(Nc1cn(CCOCC(F)(F)F)nc1-c1ccccn1)c1coc(-c2cn[nH]c2)n1 [Compound I-15, 2-(1H-pyrazol-4-yl)-N-(3-(pyridin-2-yl)-1-(2-(2,2,2-trifluoroethoxy)ethyl)-1H-pyrazol-4-yl)oxazole-4-carboxamide] | 451 | 85.3 | – | – | – |
| O=C(Nc1cn(CCOCC(F)F)nc1-c1ccccn1)c1coc(-c2cn[nH]c2)n1 [Compound I-25, N-(1-(2-(2,2-difluoroethoxy)ethyl)-3-(pyridin-2-yl)-1H-pyrazol-4-yl)-2-(1H-pyrazol-4-yl)oxazole-4-carboxamide] | – | – | – | – | EC50 ([1]; Table 3, IFNγ 50 ng/ml): 161 nM; EC50 ([2]; Table 3): 400 nM |
| CCO[C@H]1CC[C@H](n2cc(NC(=O)c3coc(-c4cnn(COP(=O)(O)O)c4)n3)c(-c3cnccn3)n2)CC1 [Compound I-17, (4-(4-((1-((1r,4r)-4-ethoxycyclohexyl)-3-(pyrazin-2-yl)-1H-pyrazol-4-yl)carbamoyl)oxazol-2-yl)-1H-pyrazol-1-yl)methyl dihydrogen phosphate] | 15.6 | – | 60.3 | 60.3 | EC50 ([1]; Table 2, IFNγ 50 ng/ml): 15.6 nM |
| CCOC1CCC(n2ncc(NC(=O)c3coc(-c4cn[nH]c4)n3)c2-c2nc(F)ccc2F)CC1 [Compound I-14, N-(5-(3,6-difluoropyridin-2-yl)-1-((1r,4R)-4-ethoxycyclohexyl)-1H-pyrazol-4-yl)-2-(1H-pyrazol-4-yl)oxazole-4-carboxamide] | – | – | 9120 | 9120 | – |
| CCO[C@H]1CC[C@H](n2cc(NC(=O)c3coc(-c4cn[nH]c4)n3)c(-c3ccncn3)n2)CC1 [Compound I-6, N-(1-((1r,4r)-4-ethoxycyclohexyl)-3-(pyrimidin-4-yl)-1H-pyrazol-4-yl)-2-(1H-pyrazol-4-yl)oxazole-4-carboxamide] | – | – | 19.6 | 19.6 | – |
| Cn1cc(NC(=O)c2coc(-c3cnn(CC4CC4)c3)n2)c(-c2ccccn2)n1 [Compound I-19, 2-(1-(cyclopropylmethyl)-1H-pyrazol-4-yl)-N-(1-methyl-3-(pyridin-2-yl)-1H-pyrazol-4-yl)oxazole-4-carboxamide] | – | – | – | – | EC50 ([2]; Table 3): 20300 nM |

Further lines, with some results ahead:

| EC50 ([1]; Table 1, IFNγ 50 ng/ml) [nM] | EC50 ([2]; Homo sapiens, Table 1) [nM] | EC50 ([2]; Table 1) [nM] | EC50 ([2]; Table 2) [nM] | SMILES | also measured |
| --- | --- | --- | --- | --- | --- |
| 46.5 | 78 | – | – | O=C(Nc1cn(C2CCC(N3CCOCC3)CC2)nc1-c1cnccn1)c1coc(-c2c[nH]nc2F)n1 (centres unmarked) [Compound I-35, 2-(3-fluoro-1H-pyrazol-4-yl)-N-(1-((1r,4r)-4-morpholinocyclohexyl)-3-(pyrazin-2-yl)-1H-pyrazol-4-yl)oxazole-4-carboxamide formic acid salt] | – |
| 23.4 | 59.1 | – | – | O=C(Nc1cn([C@H]2C[C@H](N3CCOCC3)C2)nc1-c1cnccn1)c1coc(-c2cn[nH]c2)n1 [Compound I-33, N-(1-((1r,3r)-3-morpholinocyclobutyl)-3-(pyrazin-2-yl)-1H-pyrazol-4-yl)-2-(1H-pyrazol-4-yl)oxazole-4-carboxamide] | – |
| 111 | 474 | – | – | CCO[C@H]1CC[C@H](n2cc(NC(=O)c3coc(-c4cn[nH]c4)n3)c(-c3nc(F)c(F)cc3F)n2)CC1 [Compound I-28, N-(1-((1r,4r)-4-ethoxycyclohexyl)-3-(3,5,6-trifluoropyridin-2-yl)-1H-pyrazol-4-yl)-2-(1H-pyrazol-4-yl)oxazole-4-carboxamide] | – |
| – | 73.3 | – | – | O=C(Nc1cn([C@H]2CC[C@H](N3CCOCC3)CC2)nc1-c1nc(F)ccc1F)c1coc(-c2cn[nH]c2)n1 [Compound I-37, N-(3-(3,6-difluoropyridin-2-yl)-1-((1r,4r)-4-morpholinocyclohexyl)-1H-pyrazol-4-yl)-2-(1H-pyrazol-4-yl)oxazole-4-carboxamide] | – |
